Test results taken from patent US20180298344A1, “Realistic Humanized Model of Disease Matrix Environment for Evaluation of Therapeutic Reversal or Cell Fate” (Yale University, priority 2017, published 2018).

Columns and labels:
tumor = conditions: by reducing PC coverage; cited from earlier work
[1] = test system: cultured lung fibroblasts; conditions: cultured lung fibroblasts in vitro; cited from earlier work
[2] = test system: idiopathic pulmonary fibrosis patients; conditions: IPF patients; cited from earlier work
[3] = test system: human microvascular pericytes (PC); assay: Short term (7 day) myofibroblast differentiation of PC on low, medium, high stiffness hydrogels with TGF-β1 or bleomycin activation; assay type: cell-based
Description: Human microvascular PC were isolated from a readily available and nearly inexhaustible source, human placental tissue, by microvascular segment explant outgrowth (Sava et al., Microcirculation, 2015, 22:54-67; Ayres-Sander et al., PLoS One, 2013, 8:e60025; Lauridsen et al., FASEB, 2014, 28:1166-1180; Maier et al., Microcirculation, 2010, 17:367-380). Human placental tissue was segmented, digested with collagenase, and the resulting cells were cultured in M199 (Gibco, Grand Island, NY, USA) medium supplemented with 20% FBS (Hyclone Laboratories, Logan, Utah, USA), and 1% penicillin-streptomycin (Gibco). Isolated pericytes were screened by flow cytometry against NG2 (H-300, Santa Cruz Biotechnology), CD90 (K-15, Santa Cruz), CD146 (P1H12, Biolegend, San Diego, Calif., USA), PDGFR-β (18A2, Santa Cruz), α-SMA (1A4, Santa Cruz), SMMHC (N-16, Santa Cruz), CD31 (C20, Santa Cruz), CD34 (581, Sigma) and CD45 (MEM-28, Sigma). As negative control, PC were incubated with isotype matched IgG. Samples were run on a Stratedigm S1000EXi Flow Cytometer (Stratedigm, San Jose, Calif. USA) and analyzed with FlowJo software (Tree Star, Ashland, Oreg., USA).
Polyacrylamide hydrogels were prepared as previously described (Tse and Engler, Current protocols in cell biology, editorial board, Juan S. Bonifacino et al, 2010, Chapter 10, Unit 10-16). Briefly, amino-silanated coverslips were prepared by treatment with 0.1M NaOH, followed by 3-aminopropyltriethoxysilane (Sigma), and crosslinked with glutaraldehyde. Chloro-silanated coverslips were treated with dichlorodimethylsilane (Sigma). Polyacrylamide solutions of varying stiffness were prepared by altering the concentrations of acrylamide (Bio-Rad, Hercules, Calif., USA) and bis-acrylamide (Bio-Rad). Ammonium persulfate (Sigma) and tetramethylethylenediamine (Bio-Rad) were used as cross-linkers. The solution was placed between the chloro-silanated and amino-silanated coverslips and cross-linked under ambient lighting for 30 minutes, after which the amino-silanated slide, containing the hydrogel, was hydrated in PBS. The ECM components were chemically conjugated to the polyacrylamide hydrogel using the naturally occurring amine residues on the proteins. Sulfa-SANPAH (Thermo Fisher, Grand Island, N.Y., USA) was added in 50 mM 4-(2-hydroxyethyl)-1-piperazineethanesulfonic acid buffer (Sigma) and the hydrogels were placed under UV light (365 nm, 10 mW/cm^2) for 15 minutes, and incubated overnight with either 0.5 mg/mL solubilized healthy or IPF human lung ECM, or isolated ECM proteins (0.1 mg/mL human plasma fibronectin (Millipore, Billerica, Mass., USA) and 0.1 mg/mL collagen I (Sigma). Validation of protein conjugation was performed by tagging ECM with NHS-Fluorescein (5/6-carboxyfluorescein succinimidyl ester), dialyzing overnight, and rinsed extensively (Syed et al., J Vis, Exp, 2015, 97).
For short term (7 day) differentiation studies, PC (passage 3-7) were seeded on healthy or IPF lung tissue slices, polyacrylamide hydrogels, or 25 mm glass coverslips (VWR) at 100×10^3 cells per sample and activated with control media (non-activated), or 1 ng/mL TGF-β1 (PeproTech, Rocky Hill, N.J., USA) for 7 days (18, 19). For bleomycin activation, the cells were activated with 1 μg/mL bleomycin sulfate (Cayman Chemical, Ann Arbor, Mich.) for 1 day and the media was replaced with non-activated media for the remaining 6 days (Sava et al., Microcirculation, 2015, 22:54-67; Sterling et al., J Bio Chem, 1983, 258:14438-14444). TGF-β1 and bleomycin concentrations were based on reports consistent with activation of fibroblasts (Sava et al., Microcirculation, 2015, 22:54-67; Maroni and Davis, Bio Reprod, 2012, 87:127). Treatment with CCG-1423 (Sigma) was performed at day 0 for the full 7 days, and labeled as early treatment, or at day 7 and performed for 7 days, and labeled as late treatment. […]

[4] = 7 days, low, medium, high stiffness hydrogels with fibronectin and collagen I, TGF-β1 1 ng/mL 7 days or bleomycin 1 μg/mL 1 day, flow cytometry

COC(=O)c1ccc2c(c1)NC(=O)/C2=C(\Nc1ccc(N(C)C(=O)CN2CCN(C)CC2)cc1)c1ccccc1 [nintedanib]
tumor growth (tumor): inhibit tumor growth | TGF-β1-induced myofibroblast differentiation and matrix deposition [1]: oppose | decline in forced vital capacity [2]: reducing the decline in forced vital capacity

TGF-β1: transforming growth factor (TGF)-β1, fibrotic activator, used at 1 ng/mL
vimentin expression compared to non-activated PC on substrates of the same stiffness [3, 4]: did not induce a significant increase | α-SMA expression compared to non-activated PC on substrates of the same stiffness [3, 4]: did not induce a significant increase | proportion of α-SMA-expressing PC ([3]; soft or stiff hydrogels, up to 7 days, presence or absence of TGF-β1): failed to affect
